Patent US10532985B2, “Heterocycle and carbocycle derivatives having TRKA inhibitory activity” (Shionogi & Co., Ltd., priority 2014, dated 2020)

Legend:
human TrkA [1] = molecular target: T1, human TrkA (Homo sapiens, UniProt P04629); assay: Test Example 2: Human TrkA Inhibition Assay; type: biochemical; details: Test Example 2
T1 construct: purchased Lifetechnologies PV3144
Outline: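 Mobility-shift kinase assay: 90 min reaction at room temperature, stopped with EDTA buffer; phosphorylated and non-phosphorylated fluorescent substrate measured, conversion ratio calculated. Inhibition % normalised between DMSO-only wells and no-TrkA wells.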

human TrkA [2] = molecular target: T1, human TrkA; assay: Test Example 2-2: Human TrkA Inhibition Assay; type: biochemical
Method: Seven point five μL per well of human TrkA (PV3144, Lifetechnologies, final concentration: 1 nmol/L) suspended in the assay buffer (100 mmol/L 4-(2-hydroxyethyl)-1-piperazineethanesulfonic acid (HEPES), 10 mmol/L magnesium chloride, 0.003 vol % Brij-35, 0.004 vol % Tween20 and 1 mmol/L dithiothreitol (DTT)) was applied in a 384 well plate and the plate was pre-incubated for 15 min at room temperature with 0.4 μL of each compound (final concentration: […]) dissolved in DMSO. Then, fluorescent substrate (FL-peptide 27, 760424, PerkinElmer, final concentration: 1.5 μmol/L) and ATP (final concentration […]) dissolved in the assay buffer was added in each well. After the incubation of 120 min at 37° C., fifteen μL of termination buffer (100 mmol/L HEPES, 40 mmol/L ethylenediaminetetraacetic acid (EDTA), 10 mmol/L magnesium chloride, 0.003 vol % Brij-35, 0.004 vol % Tween20, 1 mmol/L DTT and 0.16 vol % Coating Reagent 3) was added in each well to stop the enzyme reaction. Fluorescent intensities (FI) of phosphorylated and non-phosphorylated fluorescent substrates were measured by LabChip EZReader II (Caliper LifeSciences, Inc.), and conversion ratio (CR) was calculated by the following formula-1. The CR in the well applied with DMSO alone was used as a negative control and the CR in the well without applying TrkA was used as a positive control. The inhibitory effect of each compound on TrkA phosphorylation was calculated by the following formula-2. CR (%)=(FI of phosphorylated substrate/(FI of phosphorylated substrate+FI of non-phosphorylated substrate))×100 (Formula-1) Phosphorylation inhibition (%)=(1−(CR with compound treatment−CR of positive control)/(CR of negative control−CR of positive control))×100 (Formula-2) Inhibitory effect on TrkA phosphorylation (%)=(1−(CR in compound treated well−CR in positive control)/(CR in negative control−CR in positive control))×100.
The 50/o inhibitory concentration (IC50) was determined by the logistic regression using the inhibition data in 10 points at a range of 2 μmol/L to 0.1 nmol/L or 200 μmol/L to 10 nmol/L).

[3] = Test Example 9-2: Metabolism Stability Test; type: in vitro ADME; details: human liver microsomes 0.5 mg protein/mL, 30 minutes, 37° C., 1 mmol/L NADPH
Method: (§1) Using commercially available pooled human hepatic microsomes, a compound of the present invention was reacted for a constant time, and a remaining rate was calculated by comparing a reacted sample and an unreacted sample, thereby, a degree of metabolism in liver was assessed.
(§2) A reaction was performed (oxidative reaction) at 37° C. for 0 minute or 30 minutes in the presence of 1 mmol/L NADPH in 0.2 mL of a buffer (50 mmol/L Tris-HCl pH 7.4, 150 mmol/L potassium chloride, 10 mmol/L magnesium chloride) containing 0.5 mg protein/mL of human liver microsomes. After the reaction, 50 μL of the reaction solution was added to 100 μL of a methanol/acetonitrile=1/1 (v/v), mixed and centrifuged at 3000 rpm for 15 minutes. The compound of the present invention in the supernatant was quantified by LC/MS/MS or Solid Phase Extraction (SPE)/MS, and a remaining amount of the compound of the present invention after the reaction was calculated, letting a compound amount at 0 minute reaction time to be 100%.

[4] = molecular target: T2, human ether-a-go-go related gene (hERG) channel (Homo sapiens, UniProt Q12809); assay: Test Example 3: hERG Test (whole cell patch clamp, IKr); type: cell-based; details: CHO cells expressing hERG
T2 construct: expressed in transfected cells; host or cells: CHO cells
Description: For the purpose of assessing risk of an electrocardiogram QT interval prolongation of the compound of the present invention, effects of the compound of the present invention on delayed rectifier K current (I r), which plays an important role in the ventricular repolarization process, was studied using CHO cells expressing human ether-a-go-go related gene (hERG) channel.
After a cell was retained at a membrane potential of −80 mV by whole cell patch clamp method using an automated patch clamp system (QPatch; Sophion Bioscience A/S), IKr induced by leak potential at −50 mV, and then depolarization pulse stimulation at +20 mV for 2 seconds and, further, repolarization pulse stimulation at −50 mV for 2 seconds, was recorded. After the generated current was stabilized, extracellular solution (NaCl: 145 mmol/L, KCl: 4 mmol/L, CaCl2: 2 mmol/L, MgCl2: 1 mmol/L, glucose: 10 mmol/L, HEPES (4-(2-hydroxyethyl)-1-piperazineethanesulfonic acid): 10 mmol/L, pH7.4), in which the compound of the present invention had been dissolved at an objective concentration, was applied to the cell at room temperature for 10 minutes. From the recording IKr, an absolute value of the tail peak current was measured based on the current value at the resting membrane potential using analysis software (Falster Patch; Sophion Bioscience A/S). Further, the % inhibition relative to the tail peak current before application of the compound of the present invention was calculated, and compared with the vehicle-applied group (0.1% dimethyl sulfoxide solution) to assess influence of the compound of the present invention on IKr.

[5] = Test Example 9: Metabolism Stability Test; type: in vitro ADME; details: human liver microsomes 0.5 mg protein/mL, 30 minutes, 37° C., 1 mmol/L NADPH
Method: as §1
as §2, with “LC/MS/MS,” for “LC/MS/MS or Solid Phase Extraction (SPE)/MS,”

[6] = human TrkA 2.5 nmol/L, ATP 500 μmol/L, 90 min at room temperature, read-out: TrkA inhibitory activity IC50
[7] = human TrkA 1 nmol/L, 120 min at 37° C., read-out: TrkA inhibition IC50
[8] = human TrkA inhibition, class symbols A/B/C, read-out: IC50_nM

T1 sequence (P04629 33-796): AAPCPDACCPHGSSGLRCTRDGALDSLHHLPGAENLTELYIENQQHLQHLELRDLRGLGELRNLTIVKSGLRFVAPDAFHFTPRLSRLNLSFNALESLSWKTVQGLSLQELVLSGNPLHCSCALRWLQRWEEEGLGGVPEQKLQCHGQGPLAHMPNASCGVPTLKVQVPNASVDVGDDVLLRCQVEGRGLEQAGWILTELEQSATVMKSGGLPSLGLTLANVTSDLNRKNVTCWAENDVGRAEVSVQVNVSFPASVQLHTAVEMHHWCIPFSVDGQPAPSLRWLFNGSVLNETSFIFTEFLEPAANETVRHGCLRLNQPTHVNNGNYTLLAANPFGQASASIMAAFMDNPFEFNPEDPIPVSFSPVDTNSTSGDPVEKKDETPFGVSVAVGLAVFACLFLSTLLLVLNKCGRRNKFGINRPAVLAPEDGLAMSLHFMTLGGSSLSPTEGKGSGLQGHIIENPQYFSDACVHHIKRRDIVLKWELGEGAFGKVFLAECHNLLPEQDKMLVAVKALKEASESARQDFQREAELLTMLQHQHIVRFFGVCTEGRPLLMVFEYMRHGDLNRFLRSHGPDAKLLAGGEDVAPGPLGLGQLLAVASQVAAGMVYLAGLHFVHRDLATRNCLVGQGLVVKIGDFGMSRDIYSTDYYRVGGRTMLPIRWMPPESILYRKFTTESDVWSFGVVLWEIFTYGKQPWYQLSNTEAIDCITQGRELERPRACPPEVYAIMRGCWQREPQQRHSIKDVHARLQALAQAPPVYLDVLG
T2 sequence (Q12809 whole entry): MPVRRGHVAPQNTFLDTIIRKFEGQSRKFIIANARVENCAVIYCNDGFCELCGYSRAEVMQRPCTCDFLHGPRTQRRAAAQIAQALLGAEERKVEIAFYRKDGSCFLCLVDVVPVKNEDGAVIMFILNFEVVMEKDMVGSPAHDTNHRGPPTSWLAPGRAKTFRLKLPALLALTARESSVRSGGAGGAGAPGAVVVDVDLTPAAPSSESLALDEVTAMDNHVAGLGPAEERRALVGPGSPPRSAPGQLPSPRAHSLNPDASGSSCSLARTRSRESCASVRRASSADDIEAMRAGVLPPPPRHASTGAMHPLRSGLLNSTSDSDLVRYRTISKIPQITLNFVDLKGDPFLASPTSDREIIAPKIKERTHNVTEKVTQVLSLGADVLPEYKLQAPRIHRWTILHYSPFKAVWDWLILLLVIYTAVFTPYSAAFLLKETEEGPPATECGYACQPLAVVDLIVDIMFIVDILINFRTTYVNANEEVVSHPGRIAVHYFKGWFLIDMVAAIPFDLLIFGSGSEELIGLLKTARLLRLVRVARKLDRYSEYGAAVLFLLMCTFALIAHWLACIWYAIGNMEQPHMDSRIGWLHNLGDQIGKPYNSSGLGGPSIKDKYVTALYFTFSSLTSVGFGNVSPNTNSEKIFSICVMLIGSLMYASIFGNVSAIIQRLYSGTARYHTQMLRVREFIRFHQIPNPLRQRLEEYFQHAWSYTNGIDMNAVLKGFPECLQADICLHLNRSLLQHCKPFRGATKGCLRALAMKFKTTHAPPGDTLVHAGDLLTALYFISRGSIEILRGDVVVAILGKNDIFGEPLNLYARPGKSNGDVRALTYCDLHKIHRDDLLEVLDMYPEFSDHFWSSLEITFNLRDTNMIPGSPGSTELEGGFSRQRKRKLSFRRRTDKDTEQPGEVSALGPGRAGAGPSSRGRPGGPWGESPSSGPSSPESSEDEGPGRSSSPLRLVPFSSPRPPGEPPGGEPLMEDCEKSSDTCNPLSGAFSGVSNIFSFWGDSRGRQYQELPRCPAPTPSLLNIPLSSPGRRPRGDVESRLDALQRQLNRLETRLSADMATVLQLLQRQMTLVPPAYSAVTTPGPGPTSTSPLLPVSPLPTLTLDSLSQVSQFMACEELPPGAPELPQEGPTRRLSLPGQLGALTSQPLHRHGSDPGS

SMILES	IC50 (human TrkA [1]; [6])	IC50 (human TrkA [2]; [7])	other results
COCCC1C[C@@H](NC(=O)Nc2c(C)c(-c3cnn(C)c3)nn2-c2ccccc2)[C@H](c2ccc(F)c(F)c2)N1C (stereo partly shown) [Compound I-87]	1.8 nM	5.4 nM	–
COCCN1C[C@@H](NC(=O)Nc2c(C)c(-c3cnn(C)c3)nn2-c2ccccc2)[C@H](c2ccc3c(c2)NC(=O)CO3)C1 (racemic) [Compound I-136]	–	–	IC50 (human TrkA [1]; [8]): 100 to 1000 nM; remaining amount of compound after reaction [3]: 104%
COCC[C@@H]1C[C@@H](NC(=O)Nc2c(C)c(-c3cnn(C)c3)nn2-c2ccccc2)[C@H](c2ccc(F)c(F)c2)N1C [Compound I-214]	–	–	IC50 (human TrkA [2]; [8]): < 100 nM; % inhibition of IKr (hERG tail peak current) [4]: 20.2%
COCCN1C[C@@H](NC(=O)Nc2c(C)c(-c3cnn(C)c3)nn2-c2ccccc2)[C@](C)(c2ccccc2)C1 (racemic) [Compound I-16]	121 nM	410 nM	–
COCC(=O)N1C[C@@H](NC(=O)Nc2c(C)c(-c3cnn(C)c3)nn2-c2ccccc2)[C@H](c2ccc(F)c(F)c2)C1 [Compound I-026]	–	–	% inhibition of IKr (hERG tail peak current) [4]: 3.3%
COCC[N+]1([O-])C[C@@H](NC(=O)Nc2c(C)c(-c3cnn(C)c3)nn2-c2ccccc2)[C@H](c2ccc(F)c(F)c2)C1 (stereo partly shown) [Compound I-3]	65 nM	50 nM	% inhibition of IKr (hERG tail peak current) [4]: 20.4%
Cc1c(-c2cnn(C)c2)nn(-c2ccccc2)c1NC(=O)N[C@@H]1CN(Cc2ccco2)C[C@H]1c1ccc(F)c(F)c1 [Compound I-86]	1.1 nM	1.8 nM	–
C=C1C[C@@H](NC(=O)Nc2c(C)c(-c3cnn(C)c3)nn2-c2ccccc2)[C@H](c2ccccc2)C1 (racemic) [Compound I-29]	–	–	IC50 (human TrkA [1]; [8]): < 100 nM; % inhibition of IKr (hERG tail peak current) [4]: 21.2%
COCCN1C[C@@H](OC(=O)Nc2c(C)c(-c3cnn(C)c3)nn2-c2ccccc2)[C@H](c2ccc(F)c(F)c2)C1 (racemic) [Compound I-1]	83 nM	120 nM	–
COCC[C@@H]1C[C@@H](NC(=O)Nc2c(C)c(-c3cnn(C)c3)nn2-c2ccccc2)[C@H](c2ccccc2)C1 [Compound I-84]	0.72 nM	1.5 nM	–
Cc1c(-c2cnn(C)c2)nn(-c2ccccc2)c1NC(=O)N[C@@H]1CN(CCOCC(F)(F)F)C[C@H]1c1ccc(F)c(F)c1 [Compound I-22]	35 nM	170 nM	–
COCCN1C[C@@H](NC(=O)Nc2c(C)c(-c3cnn(C)c3)nn2-c2ccccc2)[C@H](c2cccc(O)c2)C1 (racemic) [Compound I-96]	29 nM	160 nM	remaining amount of compound after reaction [3]: 90%
COCCN1C[C@@H](NC(=O)Cc2c(C)c(-c3cnn(C)c3)nn2-c2ccccc2)[C@H](c2ccc(F)c(F)c2)C1 [Compound I-8]	26 nM	71 nM	–
CNC(=O)C(COC)N1C[C@@H](NC(=O)Nc2c(C)c(-c3cnn(C)c3)nn2-c2ccccc2)[C@H](c2ccc(F)c(F)c2)C1 (stereo partly shown) [Compound I-109]	95 nM	220 nM	–
COCCN1C[C@@H](NC(=O)Nc2c(C)c(-c3cnn(C)c3)nn2-c2ccccc2)[C@H](c2ccnc(C#N)c2)C1 (racemic) [Compound I-180]	–	–	IC50 (human TrkA [2]; [8]): 100 to 1000 nM; remaining amount of compound after reaction [5]: 90%
COCCN1C[C@@H](NC(=O)Nc2c(C)c(-c3cnn(C)c3)nn2-c2ccccc2)[C@H](c2ccc3c(c2)OCO3)C1 (racemic) [Compound I-94]	22 nM	210 nM	–
COCC[C@@H]1C[C@@H](NC(=O)Nc2c(C)c(-c3cnn(C)c3)nn2-c2ccccc2)[C@H](c2ccccc2)C1 [Compound I-084]	–	–	% inhibition of IKr (hERG tail peak current) [4]: 10.0%
COCC[C@@H]1C[C@@H](NC(=O)Nc2c(C)c(-c3cnn(C)c3)nn2-c2ccccc2)[C@H](c2ccnc(F)c2)C1 [Compound I-262]	–	4.8 nM	% inhibition of IKr (hERG tail peak current) [4]: 20.1%
COCCC1C[C@@H](NC(=O)Nc2c(C)c(-c3cnn(C)c3)nn2-c2ccccc2)[C@H](c2ccc(F)c(F)c2)N1 (stereo partly shown) [Compound I-91]	7.8 nM	37 nM	–
CC=C1C[C@@H](NC(=O)Nc2c(C)c(-c3cnn(C)c3)nn2-c2ccccc2)[C@H](c2ccccc2)C1 [Compound I-102]	43 nM	21 nM	–
COCCC1C[C@@H](NC(=O)Nc2c(C)c(-c3cnn(C)c3)nn2-c2ccccc2)[C@H](c2ccc(O)c(O)c2)C1 (stereo partly shown) [Compound I-221]	–	–	IC50 (human TrkA [2]; [8]): < 100 nM; % inhibition of IKr (hERG tail peak current) [4]: 13.2%
COCCN1C[C@@H](NC(=O)Nc2c(C)c(-c3cnn(C)c3)nn2-c2ccccc2)[C@H](c2ccc3ncsc3c2)C1 (racemic) [Compound I-107]	–	–	IC50 (human TrkA [1]; [8]): < 100 nM; remaining amount of compound after reaction [3]: 92%
COCC[C@@H]1C[C@@H](NC(=O)Nc2c(C)c(-c3cnc(C)nc3)nn2-c2ccccc2)[C@H](c2ccc(F)c(F)c2)N1C [Compound I-255]	–	1.1 nM	% inhibition of IKr (hERG tail peak current) [4]: 10.2%
COCCN1C[C@@H](NC(=O)Nc2c(C)c(-c3cnn(C)c3)nn2-c2ccccc2)[C@H](c2ccnc(C3=NC(=O)CS3)c2)C1 (racemic) [Compound I-195]	–	–	IC50 (human TrkA [2]; [8]): > 1000 nM
CCOc1nn(-c2ccccc2)c(NC(=O)N[C@@H]2CC(CCOC)C[C@H]2c2ccccc2)c1C (stereo partly shown) [Compound I-183]	–	–	IC50 (human TrkA [2]; [8]): < 100 nM
COCC(O)[C@H]1C[C@@H](NC(=O)Nc2c(C)c(-c3cnn(C)c3)nn2-c2ccccc2)[C@H](c2ccc(F)c(F)c2)N1 (stereo partly shown) [Compound I-215]	–	–	IC50 (human TrkA [2]; [8]): 100 to 1000 nM
Cc1c(-c2cnn(C)c2)nn(-c2ccccc2)c1NC(=O)N[C@@H]1CC(C)C[C@H]1c1ccc(F)c(F)c1 (stereo partly shown) [Compound I-163]	–	–	IC50 (human TrkA [2]; [8]): 100 to 1000 nM
CCNC(=O)c1ccc(-c2nn(-c3ccccc3)c(NC(=O)N[C@@H]3C[C@@H](CCOC)C[C@H]3c3ccccc3)c2C)cc1 [Compound I-264]	–	–	IC50 (human TrkA [2]; [8]): < 100 nM
CC(=O)CN1C[C@@H](NC(=O)Nc2c(C)c(-c3cnn(C)c3)nn2-c2ccccc2)[C@H](c2ccc(F)c(F)c2)C1 [Compound I-185]	–	1500 nM	–
